From patent US12318382B2, “Methods of treating rheumatic diseases using trimetazidine-based compounds” (IMBRIA PHARMACEUTICALS, INC., priority 2018, dated 2025)

Experiment: Stability of CV-8972 in aqueous solution at different concentrations and pH
Format: physicochemical
Protocol: The stability of CV-8972 was analyzed. Aqueous samples containing CV-8972 at different concentrations and pH were incubated for various periods and analyzed.
Form A of CV-8972 were analyzed for stability in aqueous solution. Aqueous samples containing CV-8972 at different concentrations and pH were incubated for various periods and analyzed.

Retention Time 5.6 (purity of CV-8972) (276-MBA-172 2 mg/mL pH 6 (Form A), 0 hrs): 98.01
Retention Time 5.6 (purity of CV-8972) (276-MBA-172 2 mg/mL pH 6 (Form A), 1 hrs): 97.22
Retention Time 5.6 (purity of CV-8972) (276-MBA-172 2 mg/mL pH 6 (Form A), 4 hrs): 97.01
Retention Time 5.6 (purity of CV-8972) (276-MBA-172 2 mg/mL pH 6 (Form A), 6 hrs): 96.51
Retention Time 5.6 (purity of CV-8972) (276-MBA-172 2 mg/mL pH 7 (Form A), 0 hrs): 97.53
Retention Time 5.6 (purity of CV-8972) (276-MBA-172 2 mg/mL pH 7 (Form A), 1 hrs): 95.06
Retention Time 5.6 (purity of CV-8972) (276-MBA-172 2 mg/mL pH 7 (Form A), 4 hrs): 93.7
Retention Time 5.6 (purity of CV-8972) (276-MBA-172 2 mg/mL pH 7 (Form A), 6 hrs): 92.12
Retention Time 5.6 (purity of CV-8972) (276-MBA-172 2 mg/mL pH 7 (Form A), 22 hrs): 91.07
Retention Time 5.6 (purity of CV-8972) (276-MBA-172 10 mg/mL pH 6 (Form A), 0 hrs): 95.24
Retention Time 5.6 (purity of CV-8972) (276-MBA-172 10 mg/mL pH 6 (Form A), 1 hrs): 93.43
Retention Time 5.6 (purity of CV-8972) (276-MBA-172 10 mg/mL pH 6 (Form A), 4 hrs): 91.82
Retention Time 5.6 (purity of CV-8972) (276-MBA-172 10 mg/mL pH 6 (Form A), 6 hrs): 91.8
Retention Time 5.6 (purity of CV-8972) (276-MBA-172 10 mg/mL pH 6 (Form A), 22 hrs): 89.66
Retention Time 5.6 (purity of CV-8972) (276-MBA-172 10 mg/mL pH 7 (Form A), 0 hrs): 92.85
Retention Time 5.6 (purity of CV-8972) (276-MBA-172 10 mg/mL pH 7 (Form A), 1 hrs): 89.05
Retention Time 5.6 (purity of CV-8972) (276-MBA-172 10 mg/mL pH 7 (Form A), 4 hrs): 86.8
Retention Time 5.6 (purity of CV-8972) (276-MBA-172 10 mg/mL pH 7 (Form A), 6 hrs): 84.79
Retention Time 5.6 (purity of CV-8972) (289-MBA-15-A 2 mg/mL pH 6 (Form B), 0 hrs): 97.48
Retention Time 5.6 (purity of CV-8972) (289-MBA-15-A 2 mg/mL pH 6 (Form B), 1 hrs): 95.1
Retention Time 5.6 (purity of CV-8972) (289-MBA-15-A 2 mg/mL pH 6 (Form B), 4 hrs): 92.45
Retention Time 5.6 (purity of CV-8972) (289-MBA-15-A 2 mg/mL pH 6 (Form B), 6 hrs): 90.65
Retention Time 5.6 (purity of CV-8972) (289-MBA-15-A 2 mg/mL pH 6 (Form B), 22 hrs): 89.15
Retention Time 5.6 (purity of CV-8972) (289-MBA-15-A 2 mg/mL pH 7 (Form B), 0 hrs): 97.48
Retention Time 5.6 (purity of CV-8972) (289-MBA-15-A 2 mg/mL pH 7 (Form B), 1 hrs): 95.46
Retention Time 5.6 (purity of CV-8972) (289-MBA-15-A 2 mg/mL pH 7 (Form B), 4 hrs): 93.92
Retention Time 5.6 (purity of CV-8972) (289-MBA-15-A 10 mg/mL pH 6 (Form B), 0 hrs): 95.36
Retention Time 5.6 (purity of CV-8972) (289-MBA-15-A 10 mg/mL pH 6 (Form B), 1 hrs): 94.81
Retention Time 5.6 (purity of CV-8972) (289-MBA-15-A 10 mg/mL pH 6 (Form B), 4 hrs): 94.69
Retention Time 5.6 (purity of CV-8972) (289-MBA-15-A 10 mg/mL pH 6 (Form B), 6 hrs): 94.39
Retention Time 5.6 (purity of CV-8972) (289-MBA-15-A 10 mg/mL pH 6 (Form B), 22 hrs): 93.93
Retention Time 5.6 (purity of CV-8972) (289-MBA-15-A 10 mg/mL pH 7 (Form B), 0 hrs): 91.5
Retention Time 5.6 (purity of CV-8972) (289-MBA-15-A 10 mg/mL pH 7 (Form B), 1 hrs): 86.18
Retention Time 5.6 (purity of CV-8972) (289-MBA-15-A 10 mg/mL pH 7 (Form B), 4 hrs): 82.36
Retention Time 5.6 (purity of CV-8972) (289-MBA-15-A 10 mg/mL pH 7 (Form B), 6 hrs): 79.37
Structure (SMILES): COc1ccc(CN2CCN(CCOC(=O)c3cccnc3)CC2)c(OC)c1OC [CV-8972, 2-(4-(2,3,4-trimethoxybenzyl)piperazin-1-yl)ethyl nicotinate]
